These results are taken from article PMC2947314 (Cellular Signalling, 2010).

The structures appear in SMILES notation.

This assay deals with Sphingosine kinase 1 (SK1) (Homo sapiens, UniProt Q9NYA1). Put plainly: […]S1P formation assay, single concentration […]. It is filed as biochemical. As to conditions: read-out: % inhibition at 50 μM.
Sphingosine kinase 1 (SK1), sequence (Q9NYA1 whole entry): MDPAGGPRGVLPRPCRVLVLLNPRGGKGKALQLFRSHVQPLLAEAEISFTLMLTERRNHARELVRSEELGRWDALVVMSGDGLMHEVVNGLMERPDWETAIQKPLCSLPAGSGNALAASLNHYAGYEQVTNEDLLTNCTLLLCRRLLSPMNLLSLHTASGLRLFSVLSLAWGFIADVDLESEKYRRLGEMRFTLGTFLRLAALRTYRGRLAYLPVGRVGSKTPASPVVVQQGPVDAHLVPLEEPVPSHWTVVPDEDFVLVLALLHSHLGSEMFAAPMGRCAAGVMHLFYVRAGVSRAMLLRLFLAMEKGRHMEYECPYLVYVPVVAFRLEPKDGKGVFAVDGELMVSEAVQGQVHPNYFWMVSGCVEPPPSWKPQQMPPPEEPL

One may read the inhibition as the drop in the measured response relative to a control, in per cent. For `CCCCCCCCc1ccc(CCC(N)(CO)CO)cc1` [FTY720], the inhibition at 50 µM was approximately 40%.
